Tested on: methyltransferase NcpB
Experiment: NcpB O-methyltransferase enzyme assay
Conditions: with NcpB and SAM

Compound | substrate of NcpB (O-methylation)
Cc1cc(O)c(C)c(=O)o1 [4-hydroxy-3,6-dimethyl-2-pyrone] | not substrates
Cc1cc(O)cc(=O)o1 | not substrates
germicidin A | not substrates
